# “Also recorded” adds a separate entry of the source. Where two headings read alike, the source gives them in different places.
# How the values were obtained:
# [1] = tested on: HDAC1, HDAC4, SIRT1, cyclin A2 (CCNA2); test: Western blot of protein deacetylases and cyclin A2 in HCT116 cells; assay type: cell-based
# Method: HCT116 cells were transfected with either an miR-22 mimic or a scramble control, and 48 hours later the protein levels of HDAC4, SIRT1, and cyclin A2 were measured (FIG. 3B). The expression of all three proteins was reduced by treatment with the miR-22 mimic.
# (§1) Western blot and immunoprecipitation were performed as described previously^22. Specific antibodies used included anti-NUR77, RARβ, SIRT1, β-actin, and IgG (Santa Cruz Biotechnology, Santa Cruz, Calif.), phospho-JNK1/2, total JNK1/2, cleaved caspase3, HDAC1 and HDAC4 (Cell Signaling Technology, Beverly, Mass.), and CCNA2 (Novus Biologicals, Littleton, Colo.). To detect protein acetylation of NUR77 and RARβ, cell lysates (500 μg) were incubated with anti-NUR77, RARβ, or IgG antibody (1 μg), precipitated by adding Dynabeads (30 μl, Life Technologies, Carlsbad, Calif.), and probed with anti-Acetyl-lysine antibody (Cell Signaling Technology, Beverly, Mass.). To study the interaction between RARβ and NUR77, whole-cell lysates were precipitated with anti-RARβ or NUR77 antibody followed by Western blot using anti-NUR77 or RARβ antibody.
# [2] = tested on: CYCLIN A2, HDAC1, HDAC4, SIRT1; test: Protein levels in Huh7 liver cancer cells
# miR-22 [3] = settings: published data, cited from earlier work
# miR-22 [4] = test: miR-22 expression in HCT116 cells (qRT-PCR); assay type: cell-based; settings: 24 hours, RA 10 μM, butyrate 5 mM, propionate 10 mM, valerate 10 mM, SAHA 5 μM
# Method: To study the effect of RA and HDAC inhibitors on miR-22 expression, HCT116 cells were treated with RA, butyrate, propionate, valerate, and SAHA. The SCFA concentrations used were within physiologic ranges^35.
# Total RNA was extracted with TRIzol Reagent (Invitrogen, Carlsbad, Calif.), and cDNA was generated using High Capacity RNA-to-cDNA Kit (Applied Biosystems, Carlsbad, Calif.). qRT-PCR was performed on ABI 7900HT Fast Real time PCR system using Power SYBR® Green PCR Master Mix (Applied Biosystems, Carlsbad, Calif.).
# [5] = tested on: HCT116 colon cancer cells; test: MTT cell viability assay in HCT116 cells; assay type: cell-based; settings: 48 hours, RA 10 μM, butyrate 5 mM, propionate 10 mM, valerate 10 mM, SAHA 5 μM, vs. DMSO
# Method: Cell viability was monitored by MTT assay.
# HCT116 cells (American Type Culture Collection) were maintained in McCoy's 5a medium from Gibco (Life Technologies, Carlsbad, Calif.) with 10% FBS. Cells were plated (1×10^6 cells per 60-mm dish, 2×10^5 cells per 6-well plates, and 1×10^5 cells per 24-well plates) overnight prior to treatment or transfection.
# Cells were stained with 3-(4,5-dimethylthiazol-2-O-2,5-diphenyltetrazolium bromide (MTT, Sigma-Aldrich, St. Louis, Mo.) and measured at 570 nm with Microplate Reader (Biotek, Winooski, Vt.).
# NUR77 and RARβ = test: Immunoprecipitation/Western blot: protein acetylation of NUR77 and RARβ; assay type: cell-based; settings: HCT116 cells; IP with anti-NUR77 or anti-RARβ, anti-acetyl lysine blot
# Source text: FIG. 12A depicts the expression levels of proteins that were extracted from HCT116 cells and immunoprecipitated by anti-NUR77 and RARβ antibodies or IgG, followed by Western blot using an anti-acetyl lysine antibody. […] The mRNA levels of NUR77 target genes BRE as well as CCND2 and RARβ target genes RARβ and CYP26A1 in HCT116 cells are shown in FIG. 12C.
# NUR77 and RARβ acetylation status was also studied because protein acetylation alters nuclear receptor activity^37. […] To study the effect of RA/butyrate in modulating NUR77 and RARβ transcriptional activity, ChIP-qPCR and RT-PCR were performed to determine receptor binding to transcriptional regulatory regions and mRNA levels of downstream targets, respectively.
# as §1
# HCT116-generated tumors = test: Mouse xenograft tumor model; assay type: in vivo, Athymic nude mice; settings: adenoviral miR-22 intratumorally
# Method: Athymic nude mice (female, 6 weeks old, Jackson Laboratory) were subcutaneously injected by HCT116 cells (1×10^6) in the flank region. When tumor size reached […] of cross-sectional area, a combination of RA plus butyrate or adenoviral-expressing miR-22 (Ad-miR-22) was administered. For RA plus butyrate treatment, mice received RA (2.5 μg/g body weight) and butyrate (1.2 mg/g body weight) intraperitoneally (IP) 5 times a week for 2 weeks. For Ad-miR-22 treatment, mice received Ad-miR-22 (1×10^9 Pfu) intratumorally (IT) twice a week for 2 weeks. Control groups received 1% DMSO in PBS and adenovirus scramble, respectively. Tumor dimensions were measured and tumor volume was calculated using V (volume)=W (width)^2×L (length)/2. All experimental protocols were approved by the University of California Davis Animal Care and Use Committee.
compound,measurement,setting,value
"C[C@H](CCC(=O)O)[C@H]1CC[C@H]2[C@@H]3[C@H](O)C[C@@H]4C[C@H](O)CC[C@]4(C)[C@H]3CC[C@]12C [CDCA, chenodeoxycholic acid]",CYCLIN A2 levels,"[1]; colon HCT116 cells, CDCA treatment or miR-22 mimic transfection",reduced CYCLIN A2 levels; also recorded: repression of cyclin A2
same,CYCLIN A2 levels,[2]; liver Huh7 cells,reduced CYCLIN A2 levels; also recorded: repression of cyclin A2
same,miR-22 induction,miR-22 [3],induces miR-22
same,miR-22 induction,miR-22 [3]; listed as chenodeoxycholic acid,induce miR-22
CCCCC(=O)O [valerate],miR-22 expression level,miR-22 [4],induced; also recorded: increased miR-22 level
same,Cell viability,[5],Markedly reduced cell viability
C=C1CC[C@H](O)C/C1=C/C=C1\CCC[C@]2(C)[C@@H]([C@H](C)CCCC(C)C)CC[C@@H]12 [vitamin D3],miR-22 induction,miR-22 [3],induce miR-22
"CCC(=O)[O-].[Na+] [propionate, sodium propionate]",miR-22 expression level,miR-22 [4],induced; also recorded: increased miR-22 level
same,Cell viability,[5],Markedly reduced cell viability
"miR-22: microRNA, SEQ ID NO:1 AAGCUGCCAGUUGAAGAACUGU (listed as RNA, chemistry not fully specified)","Protein levels of HDAC1, HDAC4, SIRT1, cyclin A2 after miR-22 (mimic) transfection","[1]; HCT116 cells, 48 hours after transfection, vs. scramble control","inhibited multiple HDACs; also recorded: inhibits HDAC1, HDAC4 and SIRT1; also recorded: HDAC1 protein level was reduced; also recorded: reduced HDAC4 and SIRT1; also recorded: suppress HDAC4 and SIRT1 expression; also recorded: reduces protein deacetylases, including HDAC1"
same,"HDAC1, HDAC4, and SIRT1 levels",[2]; liver Huh7 cells treated with miR-22 mimic,inhibited multiple HDACs
same,Acetylated NUR77 and RARβ,NUR77 and RARβ,increased acetylated NUR77 and RARβ
same,HDACs and CCNA2 protein levels in tumors,HCT116-generated tumors,silenced HDACs and CCNA2
same,NUR77 and RARβ protein levels in tumors,HCT116-generated tumors,upregulating NUR77 and RARβ
same,Colon tumor growth / tumor size,HCT116-generated tumors; xenograft mice,inhibited colon cancer growth; also recorded: effective in inhibiting the growth of colon cancer; also recorded: remarkable effectiveness

# Source: patent US20190307771A1, “METHODS AND COMPOSITIONS FOR THE TREATMENT OF CANCER AND METABOLIC DISEASES” (THE REGENTS OF THE UNIVERSITY OF CALIFORNIA, priority 2016, published 2019)
